Test results taken from patent publication US20120114636A1, “LOW MOLECULAR WEIGHT CYCLIN E (LMW-E) AS A BIOMARKER FOR PERSONALIZATION OF CANCER THERAPIES” (The Board of Regents of the University of Texas System, priority 2009, published 2012).
Where “and” joins values, the source holds several entries; their conditions need not be identical. Identical values can stand only once.

How the values were obtained:
Type in all cases: cell-based, human
[1] = test system: MCF-7/Ac1 cells; assay: Cell cycle analysis by flow cytometry (PI); details: letrozole with 25 nM AD, concentration not given
Protocol: Cell cycle analysis. MCF-7/Ac1 cells were cultured in estrogen-deprived media with or without 25 nM 4-androstenedione, and treated with different concentrations of aromatase inhibitors. Untreated and drug treated cells were collected 72 hours later for flow cytometry and lysates were prepared for western blot and kinase assays.
(§1) Flow cytometry analysis. Cells were pelleted and resuspended in 1.5 ml of PBS, then fixed in 3.5 ml of 95% ethanol overnight at −20° C. After being washed, the pellets were resuspended in a solution of PBS containing 10 μg/ml propidium iodide, 20 μg/ml RNase A, 0.5% Tween 20, and 0.5% BSA and incubated at 37° C. for 30 min. The profiles of cells in the G0-G1, S, and G2-M phases of the cell cycle were analyzed at the M. D. Anderson Cancer Center Cytometry Core Facility on a FACS Caliber machine equipped with Cellquest or ModFit software.
FIGS. 22A-22C show the effect of aromatase inhibitor treatment on proliferative response and cell cycle distribution of MCF-7/Ac1 cells. Cells were cultured in IMEM with 10% charcoal-stripped serum medium (CSSM) without phenol red and with 600 μg/ml of G418 for 4 days before plating. Cells (100,000) were seeded in 100 mm dishes and, 24 hrs later, were exposed for 3 days to the specific treatment. […] Cell growth is expressed as the percentage of the cells compared with the control cells (25 nM AD treated cells, 575,000 cells at day 3). Columns, mean of two to three experiments, each in triplicates; bars, S.D. *, P<0.05, when compared to cells only treated with 25 nM AD; n.s, not significant. CSSM, untreated cells cultured in charcoal-stripped serum medium without phenol red and with 600 μg/ml of G418.

[2] = test system: MCF-7/Ac1 cells; assay: S-phase fraction by flow cytometry of adenovirus-infected cells; details: 1 μM letrozole with 25 nM AD
Protocol: as §1
LMW cyclin E, but not full-length cyclin E, overexpressing MCF-7/Ac1 cells partially override the letrozole inhibition of AD-induced S-phase entry and AD-induced CDK2 protein levels. Since overexpression of LMW cyclin E deregulates the G1 to S transition, the inventors interrogated the role of full-length and LMW cyclin E in letrozole response. To this end, the inventors examined the sensitivity of cyclin E overexpressing MCF-7/Ac1 cells to the growth inhibitory effect of letrozole using adenoviruses to overexpress full-length and LMW cyclin E (FIGS. 24A-24D). MCF-7/Ac1 cells were cultured in charcoal stripped serum media (CSSM) for 4 days before infecting them with 4000 m.o.i. of either LacZ, full-length cyclin E (cyclin EL) or LMW cyclin E (cyclin E-T1 and cyclin E-T2). Twenty-four hours later, cells were left either untreated, treated with 25 nM AD alone, or treated with 25 nM AD plus 1 μM letrozole for an additional 3 days (FIGS. 24A-24B). Following the treatment, cells were enumerated or subjected to flow cytometry analysis.
MCF-7/Ac1 cells were cultured in IMEM with 10% charcoal-stripped serum medium (CSSM) without phenol red and with 600 μg/ml of G418 for 4 days before plating. Triplicate wells of 6-well plates were then infected with the indicated adenoviruses (at 4000 m.o.i.) 24 hours before drug treatment. Cells were then left untreated (E2W, estrogen withdrawal) or treated with 25 nM AD (AD) or treated with 25 nM AD and 1 μM letrozole (AD+Let) and collected 3 days later for cell number. Cell growth is expressed as the percentage of the cells compared with the control cells (25 nM AD treated cells). […] MCF-7/Ac1 cells were treated as described in A, and collected for flow cytometry analysis. Histograms represent the S-phase fraction expressed as the percentage of the cells in S-phase compared with the control cells (25 nM AD treated cells). […] The same cell lysates as in A and B were subjected to western blot analysis (50 μg of protein) with cyclin E and CDK2 antibodies. The bar graph represents the densitometric values of the phosphorylated CDK2 bands. […] Left, MCF-7/Ac1 cells were cultured in IMEM with 10% charcoal-stripped serum medium (CSSM) without phenol red and with 600 μg/ml of G418 for 4 days before plating. Cells were then infected with the indicated adenoviruses (at 4000 m.o.i.) 24 hours before drug treatment. Cells were then treated with 25 nM AD and 1 μM letrozole and collected 3 days later for cell number. […] Columns, mean of two to three experiments, each in triplicates; bars, S.D.

[3] = test system: MCF-7/Ac1 cells; assay: Sequential AD/letrozole then roscovitine treatment: cell number and CDK2 western blot; details: LMW cyclin E overexpressing cells
Protocol: Medium alone or medium plus DMSO were used as controls. A schematic of the treatment strategy is depicted in FIG. 25A. At the conclusion of the treatment, cells were enumerated and subjected to western blot analysis with CDK2 (total) and phospho-CDK2 antibodies.
Cells were then infected with the indicated adenoviruses (at 4000 m.o.i.) 24 hours before drug treatment.

N#Cc1ccc(C(c2ccc(C#N)cc2)n2cncn2)cc1 [letrozole]
cells in G0/G1 [1]: 61.2+/−1.5% | cells in S phase [1]: 13.1+/−2.3% | decrease in number of cells in S phase ([2]; LacZ-infected cells): 37% | decrease in number of cells in S phase ([2]; cyclin E-T1-infected cells): 16% | decrease in number of cells in S phase ([2]; cyclin E-T2-infected cells): 21% | decrease in number of cells in S phase ([2]; cyclin EL-infected cells): 42% | decrease in number of cells in S phase ([2]; uninfected cells): 62% | increase in AD-induced proliferation not prevented by letrozole ([3]; AD plus 1 μM letrozole): 2.5 fold and 2.8 fold | phosphorylated/unphosphorylated CDK2 ratio ([3]; AD plus letrozole): 134-234%
